Measurements from patent US9527847B2, “Treatment of lupus, fibrotic conditions, and inflammatory myopathies and other disorders using PI3 kinase inhibitors” (INFINITY PHARMACEUTICALS, INC., priority 2012, dated 2016).
pEC50, pIC50: −log10 of the molar value.

Key:
B cell proliferation = B cell proliferation EC50 (Table 3); type: cell-based; conditions: in vitro
PI3K γ = target: T1, PI3K γ (Homo sapiens, UniProt P48736); assay: In vitro IC50, PI3K γ (Table 3); type: biochemical
T1 construct: purchased Sigma
Description: (§1) An exemplary system is PI 3-Kinase (human) HTRF™ Assay from Upstate. […] The total reaction volume is approximately 20 μl per well. […] The reaction is stopped by adding 5 μl of Stop Solution per well and then 5 μl of Detection Mix is added per well.

PI3K β = target: T2, PI3K β (Homo sapiens, UniProt P42338); assay: In vitro IC50, PI3K β (Table 3); type: biochemical
T2 construct: purchased Upstate
Description: as §1

PI3K α = target: T3, PI3K α (Homo sapiens, UniProt P42336); assay: In vitro IC50, PI3K α (Table 3); type: biochemical
T3 construct: purchased Upstate
Description: as §1

NZBWF1/J mice = assay: Murine NZB/W F1 lupus model; type: in vivo, mouse; conditions: 2 mg/kg PO QD, vs vehicle
Excerpt: Female NZBWF1/J mice (n=60) that were 8 weeks old on arrival and weighed approximately 35-51 grams (mean 42 g) at enrollment (mouse age approx. 23 weeks) were obtained from The Jackson Laboratory, Bar Harbor, Me. (stock number 100008). Animals were identified by a distinct number of ink marks at the base of the tail delineating animal number. After enrollment, all cages were labeled with protocol number, group number, and animal numbers.
Mice were terminated at age 43 weeks (day 140).
All dose solutions were prepared to deliver in 10 ml/kg (0.3 ml/30 g mouse).
Body weights were measured and recorded prior to study initiation for randomization, on the first day of dosing prior to dosing, and weekly throughout the study. Body weights were also recorded at scheduled termination points and as needed if test subjects appeared to decrease in weight by visual inspection. The animals were observed daily for significant clinical signs, morbidity and mortality.
Urine from each animal was tested weekly (beginning at mouse age 23 weeks) for proteinuria using Clinitech Multistick test strips (Bayer).
At necropsy, animals were anesthetized with isoflorane and bled via cardiac puncture for serum (for clinical chemistry analysis) and plasma (for Anti-dsDNA ELISA and PK). Terminal urine was collected and assessed. Spleens and kidneys (paired) were collected, weighed, and placed in 10% NBF. Serum obtained at necropsy was sent to Antech Diagnostics for analysis. Terminal plasma samples were split with half being used for Anti-dsDNA ELISA and the other half being shipped to the sponsor.
Anti-dsDNA IgG analysis was performed on days 0, 49, 98, and 140 (mouse age 23, 30, 37, and 43 weeks). Anti-dsDNA IgG levels were determined using an Anti-dsDNA IgG ELISA Kit (Alpha Diagnostic, kit #5120, lot #90903K4) following manufacturer's instructions.
Blood samples for clinical chemistry evaluation were collected at termination via cardiac puncture from Isoflurane anesthetized animals into serum separator microtainer tubes. Serum was sent to Antech Diagnostics for analysis.
The following parameters were measured: Albumin (ALB), Albumin: Globulin ratio (A/G), Alkaline phosphatase (ALK), Alanine aminotransferase (ALT), Aspartate aminotransferase (AST), Calcium (CA), Magnesium (Mg), Phosphorous (P), Globulin (GLOB), Electrolytes (Sodium (Na), Potassium (K), Chloride (Cl)), Gamma glutamyltransferase (GGT), Total bilirubin (TBILI), Amylase (AMY), Lipase (LIP), Osmolality, Triglycerides (TRIG), Total cholesterol (CHOL), Urea nitrogen (BUN), Creatinine (CREAT), Glucose (GLU), Total protein (TP), and Creatinine kinase (CPK).
Histopathologic evaluation was performed on kidneys. Kidneys from all surviving animals were examined microscopically by a board certified veterinary pathologist and observations were entered into a computer-assisted data retrieval system. Kidney sections were stained with Masson's Trichrome, or Hematoxylin and Eosin. To maintain blinding of the analysis, slides were labeled with the animal number with no reference to treatment group.
Kidneys were scored according to the following system (developed by Chan O, Madaio M P, Shlomchik M J. The roles of B cells in MRL/lpr murine lupus. Annals New York Academy of Sciences, 1997; 815:75-82), modified to suit the lesion severity.
• 0=Normal. • 1=Focal or multifocal, minimal to mild, early proliferative. • 2=Multifocal mild to moderate or mild diffuse proliferative. • 3=Diffuse moderate proliferative with or without multifocal severe areas. • 4=Marked diffuse proliferative, with crescents/sclerosis, multifocal protein casts present. • 5=Severe diffuse proliferative, with crescents/sclerosis, diffuse protein casts present. […]

mouse EAE model = assay: Experimental Autoimmune Encephalomyelitis (EAE) model, semi-therapeutic, 28 day; type: in vivo; conditions: FTY720 3 mg/kg QD p.o.
Description: EAE was induced in 60 mice using Hooke Kit™ MOG35-55/CFA Emulsion PTX (Hooke Laboratories, Lawrence Mass.), catalog number EK-0110, lot number 0104, per manufacturer's recommended protocol, except that pertussis toxin was diluted with phosphate buffered saline to achieve 1.4× and 1.3× solution (starting from the 1.5× solution in the kit). This was done to optimize disease severity for this particular study.
Mice were injected subcutaneously, at two sites in the back, with the emulsion component of the kit (containing MOG35-55). One site of injection was in the area of the upper back, approximately 1 cm caudal of the neck line. The second site was in the area of the lower back, approximately 2 cm cranial of the base of the tail. Injection volume was 0.1 mL at each site. Within 2 hours of the injection of emulsion, and then again 24 hours after the injection of emulsion, the pertussis toxin component of the kit was administered intraperitoneally. Volume of each injection was 0.1 mL.
Vehicle for Group 2 (FTY720) was water and 2% ethanol. Vehicle for all other groups was water, 0.5% CMC (low viscosity), and 0.05% Tween80. Mice were dosed at the same time every day, +/−1 hour. The last day of dosing was Day 27 after immunization.
Readouts were EAE scores and changes in body weight. Mice were scored daily from Day 7 to Day 28, and body weights were measured three times/week (Monday, Wednesday and Friday), starting on Day −1.
EAE was scored on scale 0 to 5: • 0 No obvious changes in motor functions of the mouse in comparison to non-immunized mice. When picked up by the tail, the tail has tension and is erect. Hind legs are usually spread apart. When the mouse is walking, there is no gait or head tilting. • 1 Limp tail. When the mouse is picked up by the tail, instead of being erect, the whole tail drapes over finger. • 2 Limp tail and weakness of hind legs. When mouse is picked up by tail, legs are not spread apart, but held closer together. When the mouse is observed walking, it has a clearly apparent wobbly walk. • 3 Limp tail and complete paralysis of hind legs (most common); or limp tail with paralysis of one front and one hind leg; or all of: severe head tilting, walking only along the edges of the cage, pushing against the cage wall, and spinning when picked up by the tail. • 4 Limp tail, complete hind leg and partial front leg paralysis. Mouse is minimally moving around the cage but appears alert and feeding Usually, euthanasia is recommended after the mouse scores level 4 for 2 days. When the mouse is euthanized because of severe paralysis, score of 5 is entered for that mouse for the rest of the experiment. • 5 Complete hind and complete front leg paralysis, no movement around the cage; or mouse is spontaneously rolling in the cage; or mouse is found dead due to paralysis.
At the end of the study 3 luxol fast blue (LFB) stained sections and 3 H&E sections, from lumbar, thoracic, and cervical spinal cord of all mice in Groups 1, 2, 3, and 6 and the 3 naïve mice were prepared and analyzed.
Inflammatory foci were counted in each H&E stained section. Each group of approximately 20 cells was counted as one focus. Foci larger than 20 cells were counted based on an estimate of how many foci of 20 cells were present.
The demyelination score represents an estimate of demyelinated area for each section as follows. For LFB stained slides, the demyelinated area was estimated based on intensity of blue staining of myelin. For H&E stained sections, demyelinated area was estimated by looking for interruption of normal structure—pallor and vacuolation consistent with edema and demyelination, and dilated axons. • 0—no demyelination (less than 5% demyelinated area) • 1—5 to 20% demyelinated area • 2—20 to 40% demyelinated area • 3—40 to 60% demyelinated area • 4—60 to 80% demyelinated area • 5—80 to 100% demyelinated area.
The number of apoptotic cells in each of the three H&E sections was determined.

T2 sequence (P42338 whole entry): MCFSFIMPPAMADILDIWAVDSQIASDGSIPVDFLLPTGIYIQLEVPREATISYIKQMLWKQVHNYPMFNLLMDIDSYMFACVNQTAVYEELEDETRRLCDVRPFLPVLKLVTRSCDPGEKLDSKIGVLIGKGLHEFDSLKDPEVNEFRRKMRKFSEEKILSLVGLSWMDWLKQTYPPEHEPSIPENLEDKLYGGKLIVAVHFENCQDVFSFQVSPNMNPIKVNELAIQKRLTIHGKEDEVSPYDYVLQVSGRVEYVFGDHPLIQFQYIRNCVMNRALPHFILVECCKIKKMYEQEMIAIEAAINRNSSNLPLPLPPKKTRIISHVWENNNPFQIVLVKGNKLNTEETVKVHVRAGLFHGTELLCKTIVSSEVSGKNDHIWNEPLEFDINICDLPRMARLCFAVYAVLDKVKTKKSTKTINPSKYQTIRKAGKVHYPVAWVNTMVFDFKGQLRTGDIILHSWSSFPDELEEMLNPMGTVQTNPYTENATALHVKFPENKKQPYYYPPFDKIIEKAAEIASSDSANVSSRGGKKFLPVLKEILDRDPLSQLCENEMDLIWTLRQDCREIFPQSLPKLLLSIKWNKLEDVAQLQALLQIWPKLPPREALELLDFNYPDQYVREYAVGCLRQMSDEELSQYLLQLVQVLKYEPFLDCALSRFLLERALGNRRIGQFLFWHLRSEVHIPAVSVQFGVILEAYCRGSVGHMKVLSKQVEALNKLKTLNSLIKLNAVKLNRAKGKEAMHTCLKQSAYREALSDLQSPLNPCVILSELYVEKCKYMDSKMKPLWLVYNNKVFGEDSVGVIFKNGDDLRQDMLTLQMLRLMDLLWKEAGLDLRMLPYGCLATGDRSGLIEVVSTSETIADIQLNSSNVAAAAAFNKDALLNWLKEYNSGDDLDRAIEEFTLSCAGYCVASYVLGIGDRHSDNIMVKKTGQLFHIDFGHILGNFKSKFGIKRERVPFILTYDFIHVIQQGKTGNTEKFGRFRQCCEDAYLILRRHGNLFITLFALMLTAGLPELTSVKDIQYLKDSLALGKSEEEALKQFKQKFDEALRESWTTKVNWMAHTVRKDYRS
T2 sequence (P27986 whole entry partner): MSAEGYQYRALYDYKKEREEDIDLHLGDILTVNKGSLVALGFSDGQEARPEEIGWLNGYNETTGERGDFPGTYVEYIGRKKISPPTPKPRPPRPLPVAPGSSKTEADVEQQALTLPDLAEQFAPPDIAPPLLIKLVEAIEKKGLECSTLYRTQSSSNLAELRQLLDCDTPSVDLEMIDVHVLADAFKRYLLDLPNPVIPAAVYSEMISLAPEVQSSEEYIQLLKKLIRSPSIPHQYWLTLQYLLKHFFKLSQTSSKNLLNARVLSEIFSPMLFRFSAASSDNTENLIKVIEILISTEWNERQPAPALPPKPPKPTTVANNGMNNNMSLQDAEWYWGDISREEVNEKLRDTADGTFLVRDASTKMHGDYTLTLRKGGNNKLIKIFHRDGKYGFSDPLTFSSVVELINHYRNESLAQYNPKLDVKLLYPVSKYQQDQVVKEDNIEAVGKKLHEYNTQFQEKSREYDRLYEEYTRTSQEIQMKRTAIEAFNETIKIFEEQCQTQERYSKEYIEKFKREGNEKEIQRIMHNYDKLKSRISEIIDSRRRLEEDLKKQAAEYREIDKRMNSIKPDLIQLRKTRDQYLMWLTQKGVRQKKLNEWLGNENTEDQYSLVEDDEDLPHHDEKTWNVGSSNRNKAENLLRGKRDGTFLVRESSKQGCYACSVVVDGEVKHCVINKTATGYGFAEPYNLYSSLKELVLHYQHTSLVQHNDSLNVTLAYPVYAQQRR
T1 sequence (P48736 whole entry): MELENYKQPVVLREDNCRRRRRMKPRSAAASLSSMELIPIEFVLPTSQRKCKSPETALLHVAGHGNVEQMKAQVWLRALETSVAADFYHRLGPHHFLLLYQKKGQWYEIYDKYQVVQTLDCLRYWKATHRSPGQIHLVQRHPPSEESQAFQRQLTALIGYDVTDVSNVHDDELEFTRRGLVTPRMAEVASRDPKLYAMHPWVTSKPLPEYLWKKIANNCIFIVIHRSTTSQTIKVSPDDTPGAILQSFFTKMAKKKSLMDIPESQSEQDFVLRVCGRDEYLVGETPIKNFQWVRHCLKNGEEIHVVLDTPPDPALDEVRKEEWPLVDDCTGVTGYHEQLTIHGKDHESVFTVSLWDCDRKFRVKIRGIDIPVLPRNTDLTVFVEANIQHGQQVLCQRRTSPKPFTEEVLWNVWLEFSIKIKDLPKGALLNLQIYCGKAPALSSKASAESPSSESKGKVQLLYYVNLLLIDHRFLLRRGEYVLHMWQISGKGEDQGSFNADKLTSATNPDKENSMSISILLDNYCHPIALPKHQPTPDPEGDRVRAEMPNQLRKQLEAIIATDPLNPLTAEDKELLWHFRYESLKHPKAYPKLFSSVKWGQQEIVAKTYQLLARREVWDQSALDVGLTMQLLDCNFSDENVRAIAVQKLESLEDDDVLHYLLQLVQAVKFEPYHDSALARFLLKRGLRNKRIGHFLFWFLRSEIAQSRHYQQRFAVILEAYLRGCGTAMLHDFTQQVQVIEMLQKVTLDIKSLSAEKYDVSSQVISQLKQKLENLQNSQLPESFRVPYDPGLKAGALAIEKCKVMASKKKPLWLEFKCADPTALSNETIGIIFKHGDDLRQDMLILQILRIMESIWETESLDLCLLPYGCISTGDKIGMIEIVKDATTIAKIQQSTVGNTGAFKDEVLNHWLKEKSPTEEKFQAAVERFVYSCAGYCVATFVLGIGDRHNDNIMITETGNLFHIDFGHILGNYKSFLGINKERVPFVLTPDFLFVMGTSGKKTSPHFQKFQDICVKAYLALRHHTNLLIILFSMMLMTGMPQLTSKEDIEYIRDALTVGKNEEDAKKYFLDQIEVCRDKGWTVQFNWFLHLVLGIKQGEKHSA
T3 sequence (P42336 whole entry): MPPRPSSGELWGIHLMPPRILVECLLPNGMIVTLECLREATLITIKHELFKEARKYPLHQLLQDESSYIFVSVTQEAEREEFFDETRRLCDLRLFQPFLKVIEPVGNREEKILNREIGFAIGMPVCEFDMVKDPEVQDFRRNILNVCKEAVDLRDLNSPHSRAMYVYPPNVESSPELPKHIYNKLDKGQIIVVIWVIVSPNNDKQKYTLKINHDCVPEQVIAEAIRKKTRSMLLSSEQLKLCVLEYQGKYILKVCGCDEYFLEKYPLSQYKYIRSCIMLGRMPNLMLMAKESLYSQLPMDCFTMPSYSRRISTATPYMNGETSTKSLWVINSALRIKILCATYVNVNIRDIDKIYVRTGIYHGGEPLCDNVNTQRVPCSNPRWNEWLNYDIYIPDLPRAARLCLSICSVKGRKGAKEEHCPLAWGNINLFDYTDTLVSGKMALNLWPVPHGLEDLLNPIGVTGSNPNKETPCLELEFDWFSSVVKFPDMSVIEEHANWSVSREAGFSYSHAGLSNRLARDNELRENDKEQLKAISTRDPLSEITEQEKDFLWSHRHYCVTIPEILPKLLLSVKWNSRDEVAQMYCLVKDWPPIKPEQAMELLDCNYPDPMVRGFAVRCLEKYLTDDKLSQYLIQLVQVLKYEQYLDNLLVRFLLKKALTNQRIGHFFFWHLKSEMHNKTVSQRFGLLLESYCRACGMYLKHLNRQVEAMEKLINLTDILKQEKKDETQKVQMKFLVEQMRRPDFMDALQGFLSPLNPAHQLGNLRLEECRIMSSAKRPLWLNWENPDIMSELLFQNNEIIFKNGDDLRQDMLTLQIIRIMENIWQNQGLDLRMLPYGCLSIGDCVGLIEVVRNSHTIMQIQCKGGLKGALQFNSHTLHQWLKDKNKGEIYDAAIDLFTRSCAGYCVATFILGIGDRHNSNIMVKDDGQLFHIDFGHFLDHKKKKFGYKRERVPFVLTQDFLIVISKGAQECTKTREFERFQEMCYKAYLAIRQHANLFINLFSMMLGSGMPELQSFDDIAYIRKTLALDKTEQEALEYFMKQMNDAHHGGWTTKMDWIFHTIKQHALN
T3 sequence (P27986 whole entry partner): as the sequence (P27986 whole entry partner) above

`Cc1ccccc1-n1c(Cn2nc(I)c3c(N)ncnc32)cc2cccc(C)c2c1=O` [Compound 6] showed a pEC50 (B cell proliferation) of over 7.00.

`Cc1cccc2cc(Cn3nc(C#CCO)c4c(N)ncnc43)n(-c3ccccc3F)c(=O)c12` [Compound 7] gave a pEC50 (B cell proliferation) of over 7.00, a pIC50 (PI3K γ) of over 7.00 and a pIC50 (PI3K β) of over 6.00. For the same molecule, the pIC50 (PI3K α) was over 5.00.

`Cc1ccccc1-n1c(Cn2nc(-c3cc(O)cc(F)c3)c3c(N)ncnc32)cc2cccc(C)c2c1=O` [Compound 8] was tested, and the pEC50 (B cell proliferation) was over 6.00 and the pIC50 (PI3K β) was under 5.00.

For `C[C@@H]1C[C@H]2[C@@H]3CCC4=CC(=O)C=C[C@]4(C)[C@@]3(F)[C@@H](O)C[C@]2(C)[C@@]1(O)C(=O)CO` [Dex, dexamethasone, reference compound], the Glomerulonephritis score reduction (NZBWF1/J mice; kidney histopathology) was 91%, the “Interstitial nephritis score reduction” value (NZBWF1/J mice) was 95% and the Kidney weight increase (NZBWF1/J mice) was 20%. For the same molecule, the “Perivascular inflammation score reduction” value (NZBWF1/J mice) was 100%, the Spleen weight reduction (NZBWF1/J mice) was 76% and the “Summed histopathology scores reduction” value (NZBWF1/J mice) was 88%.

In the case of `CCCCCCCCc1ccc(CCC(N)(CO)CO)cc1` [FTY720, reference compound], the “MMS +/− SD” value (mouse EAE model) was 1.65 +/− 1.23, the “Median Day of Onset” value (mouse EAE model) was 11.5 days and the “End % body weight +/− SD” value (mouse EAE model; Day 27 relative to Day −1) was 110.0 +/− 7.4%. The “End score +/− SD” value (mouse EAE model; Day 28) was 0.45 +/− 0.44, the “Inflammatory foci +/− SD” value (mouse EAE model; per spinal cord section) was 0.3 +/− 0.4 and the “Demyelination (LFB) +/− SD” value (mouse EAE model; score per section) was 0.3 +/− 0.3.
